Consider 8 compounds from article PMC12415202, “Specificities of chemosensory receptors in the human gut microbiota” (Proceedings of the National Academy of Sciences of the …, 2025).

Holding throughout (experiment): ITC
(ITC needs no label: the signal is the heat of the interaction.)

Assay [1] addresses T1, K1 LBD.
T1 construct: source species and locus only in SI

Assay [2] has as its target T2, D8 LBD.
T2 construct: D8-dm = residues 33-179, D8-pm = residues 153-280; source species and locus only in SI
Conditions: membrane-distal module.

The target of assay [3] is T3, B9 LBD.
T3 construct: source species and locus only in SI
An excerpt:
ITC on B9 LBD | The binding of L-threonine to the B9 LBD

Assay [4] has as its target T4, B6 LBD.
T4 construct: locus only in SI
Also noted: species or system Catenibacterium mitsuokai. An excerpt: ITC on B6 LBD | the binding of indole to the B6 LBD were confirmed by isothermal titration calorimetry

Assay [5] has as its target T5, C1 LBD.
T5 construct: source species and locus only in SI
An excerpt:
ITC on C1 LBD | The binding of L-lactate to the K1 and C1 LBDs

For assay [6], the target named is T6, J6 LBD.
T6 construct: source species and locus only in SI
An excerpt:
ITC on J6 LBD | ethylamine and methylamine to the J6 LBD was confirmed by ITC

In assay [1], `C[C@@H](O)C(=O)O` [D-lactate] registered an equilibrium dissociation constant (Kd) of 66.1 ± 10.7 µM.

The compound `O=C(O)/C=C\C(=O)O` [maleate] had a Kd in assay [2] of 7.7 ± 0.41 µM.

The compound `C[C@@H](O)[C@H](N)C(=O)O` [L-threonine] gave a Kd in assay [3] of 1300 ± 200 nM.

The compound `c1ccc2[nH]ccc2c1` [indole] yielded a Kd in assay [4] of 35.6 ± 7.02 µM.

`C[C@H](O)C(=O)O` [L-lactate]: the dissociation constant Kd was determined as 16 ± 0.56 µM in assay [1] and 26.8 ± 0.91 µM in assay [5].

For the compound `O=C(O)CCC(=O)O` [succinate], the Kd in assay [2] is 1.7 ± 0.11 µM.

In turn, `C=C(CC(=O)O)C(=O)O` [itaconate] returned a Kd in assay [2] of 9.6 ± 0.9 µM.

In assay [6], `CN` [methylamine] registered a Kd of 242 ± 22 µM.

The Kd is the concentration at which binding is half-saturated. Higher therefore signals a looser complex.
